Experimental data reported in patent US20160011177A1, “SCREENING METHOD FOR THERAPEUTIC AGENTS FOR CHARCOT-MARIE-TOOTH DISEASE AND SELF-DIFFERENTIATION MOTOR NEURONS USED THEREFOR” (Samsung Life Public Welfare Foundation, priority 2013, published 2016).
Entries after “also recorded” stand apart in the source; their conditions may differ.

Key:
CMT1A transgenic mouse = details: cited from earlier work
Pmp22 mRNA = details: transgenic mouse; cited from earlier work
CMT 2F-MN = assay: α-tubulin acetylation in motor neurons (immunostaining, Western blotting); assay type: cell-based, human; details: 5 μM tubastatin A, 12 hours, versus non-treated and normal control WA09_MN
Excerpt: To use the neurons differentiated from CMT patient originated iPSCs as the CMT drug efficiency test model, the recovery of axonal transport according to the treatment of tubastatin A, the histon deacetylase 6 (HDAC6) inhibitor, was investigated. CM2 subtype has heterogeneity in CMT causing gene, but nevertheless it causes malfunction in axonal transport system in many patients (Gentil B J and Cooper L, Brain Res Bull 2012; 88: 444-453). Therefore, the axonal transport efficiency of CMT 2F-MN was investigated by measuring the level of α-tubulin acetylation which was reported previously to be associated with the interaction between the vehicle and the motor protein (Westermann S and Weber K. Nat Rev Mol Cell Biol 2003; 4: 938-947).
Particularly, the CMT-2F-MN or WA09_MN differentiated by the same manner as described in Example <3-1> was treated with 5 μM tubastatin A, followed by culture for 12 hours. Then, the cells were immunostained with α-tubulin and acetylated α-tubulin by the same manner as described in Example <2-3>. […]
The CMT-2F-MN or WA09_MN treated with 5 μM tubastatin A was suspended in RIPA lysis buffer (pH 8.0) containing 150 mM NaCl, 1.0% NP-40, 0.5% sodium deoxycholate, 0.1% sodium dodecylsulfate, and 50 mM Tris. […] The band density was analyzed by using UN-SCAN-IT gel software in order to (Silk Scientific, USA) measure the level of α-tubulin acetylation. […]

HSP27 P182L-MN = assay: Moving mitochondria in motor neuron axons, microfluidic culture; assay type: cell-based, human
Excerpt: (§1) To use the neurons differentiated from CMT patient originated iPSCs as the CMT drug efficiency test model, moving mitochondria was investigated over the treatment of tubastatin A, the histon deacetylase 6 (HDAC6) inhibitor, through microfluidic culture, as shown in FIG. 13. And the axonal transport efficiency of motor neurons (CMT 2F-MN) was confirmed (FIG. 13).
(§2) Particularly, the CMT-2F-MN or WA09_MN obtained in Example <3-1> was separated as single cells by using accutase, which were then inoculated in microchannel plates (provided by Dr. Mok, Seoul National University, Korea; Park J W et al., Nat Protoc 2006; 1: 2128-2136) at the density of 1.0×10^5 cells/plate, followed by culture in neurobasal/B27 for 10 days. After axons were fully grown through micrometer-sized grooves and stretched to the opposite compartment, the processed motor neurons were transfected with mito-dsRED2 by using lipofectamine 2000 (Invitrogen, USA). Within 2 days from the transfection, 5˜10 μM tubastatin A was treated to the medium, followed by culture for 6 hours. Imaging of mitochondria was performed by using fluorescent microscope at the speed of 121 snaps/2 min. Moving velocity of the motor neuron was measured by using ImageJ and Kymograph.

HSP27 S135F-MN = assay: as above; assay type: cell-based, human
Excerpt: as §1, §2

WA09_hESC-MN = assay: as above; assay type: cell-based, human; details: 6 hours
Excerpt: as §1, §2

myelinated nerve fibers = details: cited from earlier work
[1] = CMT 2F-MN with P182L mutation, tubastatin A treated versus non-treated
[2] = CMT 2F-MN with S135F mutation, tubastatin A treated versus non-treated

For `O=C1O[C@H]([C@@H](O)CO)C(O)=C1O` [Ascorbic acid], the “phenotype of hereditary motor and sensory neuropathies” value (CMT1A transgenic mouse) is given as “improved”.

For `CN(C)c1ccc([C@H]2C[C@]3(C)[C@@H](CC[C@]3(O)CCCO)[C@@H]3CCC4=CC(=O)CCC4=C32)cc1` [onapristone], the “over-expression of Pmp22 mRNA” value (Pmp22 mRNA) is given as “suppressed”, the “phenotype of hereditary motor and sensory neuropathies” value (Pmp22 mRNA) is given as “improved” and the side effects (Pmp22 mRNA) is given as “without side effects”.

With `CN1CCc2c(c3ccccc3n2Cc2ccc(C(=O)NO)cc2)C1` [tubastatin A] the “level of α-tubulin acetylation” value (CMT 2F-MN) was “increased/recovered back to that of the normal control group; also recorded: significantly increased”, the “moving velocity of mitochondria, in words” value (HSP27 P182L-MN; [1]) was “significantly increased” and the “transport frequency of mitochondria, in words” value (HSP27 P182L-MN; [1]) was “significantly increased”. For the same molecule, the “Moving velocity of mitochondria” value (HSP27 P182L-MN; HSP27 P182L-MN, 5 μM tubastatin A treated, 6 hours) was 0.2599 ± 0.05186 μm/sec, the “Migration of mitochondria (number of moving mitochondria by total number)” value (HSP27 P182L-MN; HSP27 P182L-MN, 10 μM tubastatin A treated, 6 hours) was 44.61 ± 10.450% and the “moving velocity of mitochondria, in words” value (HSP27 S135F-MN; [2]) was “significantly increased”. The “transport frequency of mitochondria, in words” value (HSP27 S135F-MN; [2]) was “significantly increased”, the “Moving velocity of mitochondria” value (HSP27 S135F-MN; HSP27 S135F-MN, 5 μM tubastatin A treated, 6 hours) was 0.2498 ± 0.02357 μm/sec and the “Moving velocity of mitochondria” value (WA09_hESC-MN; 5 μM tubastatin A treated) was 0.2446 ± 0.03859 μm/sec. For the same molecule, the “Migration of mitochondria (number of moving mitochondria by total number)” value (WA09_hESC-MN; 10 μM tubastatin A treated) was 39.31 ± 3.831%.

B1: neurotrophin-3 (protein, UniProt P20783 139-257, looked up)
Neurotrophin-3: YAEHKSHRGEYSVCDSESLWVTDKSSAIDIRGHQVTVLGEIKTGNSPVKQYFYETRCKEARPVKNGCRGIDDKHWNSQCKTSQTYVRALTSENNKLVGWRWIRIDTSCVCALSRKIGRT
notes: neurotrophin reported to increase myelinated nerve fibers
For B1, the myelinated nerve fibers (myelinated nerve fibers) is listed as “increased” and the sensor related symptoms (myelinated nerve fibers) is listed as “improved”.
